{"source": "patent US20210341448A1", "about": "“SCREENING METHOD FOR THERAPEUTIC DRUG OR PROPHYLACTIC DRUG FOR TAUOPATHY AND DIAGNOSTIC METHOD FOR TAUOPATHY” (National Center for Geriatrics and Gerontology, priority 2018, published 2021)", "key": {"[1]": {"biological_target": "T1, NMDAR (Homo sapiens, UniProt Q05586)", "T1 construct": "endogenous in cells; host or cells: NT2-N neurons differentiated from NTERA-2 cl.D1 [NT2/D1] cells (ATCC CRL-1973)", "test": "Measurement of calcium influx through NMDAR into NT2-N cells", "type": "cell-based", "details": "Cal-520, NT2-N cells, antagonist 50 μM", "description": "Cultured neurons expressing NMDARs retaining physiological functions were prepared by the following procedure to evaluate the NMDAR activation ability of the tau oligomer. The NTERA-2 cl.D1[NT2/D1] cells (ATCC CRL-1973) (hereinafter described as “NT2 cell”), which are derived from a human pluripotent embryonic cancer, were adhesively cultured on 10-cm plastic dish in maintenance culture medium (high glucose DMEM (Sigma-Aldrich, D6429), 10% FBS, 100 U/ml penicillin/streptomycin) under the conditions of 37° C. and 5% CO2 for 3 to 4 days until the confluency stage was attained. The NT2 cells were detached using Accutase (Innovative Cell Technologies, #AT104), were passaged, and were maintained over a period of 50 days. The medium was replaced 3 times a week.\nThe maintenance-cultured NT2 cells were dispersed in a low attachment petri dish (STAR SDish9015, RIKAKEN CO., LTD.) in a concentration of 1.5×10^6 to 2.5×10^6/dish, suspension-cultured under the conditions of 37° C. and 5% CO2 on a shaker (100 rpm), and 1 day later were induced to differentiate by adding 1 μM of all-trans-retinoic acid (abcam), to thereby form spheroids. 14 days later, the spheroids were collected, seeded in a 10-cm dish coated with 5 μg/ml of poly-D-lysin (PDL) (Sigma-Aldrich)/Laminin (LAM) (iMatrix-511, Nippi Inc.) and adhesively cultured under the conditions of 37° C. and 5% CO2. From the following day, the culture was carried out by adding 3 kinds of cell division inhibitors (10 μM of uridine, 10 μM of floxuridine, and 1 μM of AraC). […]\nFor analysis, 5 to 10 regions of the visual field of the NT2-N cells positioned in the system were manually set and the fluorescence intensities were recorded for each region, for Cal-520, every 1 minute for 1 hour continuously at excitation wavelength 480 nm/fluorescence emission wavelength 520 nm, and for Fluo-8, every 2 seconds for 5 minutes continuously at excitation wavelength 480 nm/fluorescence emission wavelength 520 nm. […]"}, "[2]": {"test_system": "membrane protein (NMDAR)", "test": "Membrane protein-based sandwich ELISA", "type": "binding, mouse", "details": "data not shown", "description": "Pellets of the membrane protein obtained from tau knockout brain by the procedure of the above (7-1) were dissolved in 2% cholic acid or 1% deoxycholate/buffer (50 mM of HEPES, 150 mM of NaCl, pH 7.4), and the solution was centrifuged at 4° C., 150,000×g for 30 minutes to thereby collect the supernatant to use as a membrane protein solution. The obtained membrane protein solution was applied to an ELISA plate (Sumitomo Bakelite Co., Ltd., MS-8596F) and incubated at 4° C. for 60 minutes to thereby coat the plate with the membrane protein. After washing with wash solution (0.004 to 0.008% MNG-3, 50 mM of HEPES, pH 7.4), blocking was done by adding 1% FBS-containing wash solution and incubating at 4° C. for 60 minutes. The solvent of the HT-tau oligomer sample prepared in the above (1-4) was replaced with the wash solution using a protein concentrator (10K MWCO, Pierce, 88526) to thereby prepare a tau oligomer solution of 10^−16 to 10^−6 g/ml. These solutions were applied to the plate and incubated at 4° C. for 15 to 60 minutes. Then, the plate was washed thoroughly with the wash solution and a 5% skim milk-containing wash solution was added, followed by incubating at room temperature for 30 minutes to thereby block the protein. After washing using the wash solution, an anti-HaloTag antibody/wash solution (1:1000 dilution) was added and incubated at room temperature for 30 minutes. Subsequently, the plate was washed with the wash solution, an HRP-labelled secondary antibody/wash solution (Invitrogen, A27036) (1:5000 dilution) was added and incubated at room temperature for 30 minutes. Then, chromogenic reactions were carried out using an Ultra TMB solution (Thermo Fisher Scientific, 34028) to detect the tau oligomers bound to the membrane protein."}, "[3]": {"test_system": "NT2-N cells", "test": "Adhesion activity of tau oligomers to NT2-N cell surface (fluorescence microscopy)", "type": "cell-based, human", "details": "on ice 30 minutes, no membrane permeabilization", "description": "Cal-520 AM was loaded to the NT2-N cells prepared in the above (4-1) by the procedure of the above (4-2), exposed to the tau oligomer sample (10 μl/ml) prepared in the above (1-3) and incubated on ice for 30 minutes. Subsequently, the cells were washed 3 times with DPBS(−) (137 mM of NaCl, 2.68 mM of KCl, 1.47 mM of KH2PO4, 8.06 mM of Na2HPO4) and fixed with 4% paraformaldehyde at room temperature for 15 minutes. After thorough washing with DPBS(−) (10 minutes×3 times), blocking was done with 1% BSA and 3% donkey serum/DPBS for 30 minutes. Then, the anti-phosphorylated tau antibody (anti-pTau (paired pS409, pS412, pS413), AnaSpec, #AS-55416) (1:1500 dilution) as the primary antibody was reacted at room temperature for 1 hour, and Alexa594-labelled anti-mouse IgG (Jackson Immuno Research, #711-585-152) (1:1500 dilution) as a secondary antibody was reacted at room temperature for 30 minutes, to thereby carry out immunostaining. The stained cells were observed using a fluorescence microscope (BZ-X710, Keyence Corporation).\nThe HT-tau oligomer sample prepared in the above (1-4), instead of the tau oligomer sample prepared in the above (1-3), was exposed to the NT2-N cells by the same procedure as in the above (5-1). After thorough washing, fluorescence microscopic observation was carried out."}, "[4]": {"biological_target": "T2, NMDAR complex (Mus musculus, UniProt P35436+P35438+Q01097)", "T2 construct": "from tissue", "T2 sequence (P35436 23-1464, other chains not shown)": "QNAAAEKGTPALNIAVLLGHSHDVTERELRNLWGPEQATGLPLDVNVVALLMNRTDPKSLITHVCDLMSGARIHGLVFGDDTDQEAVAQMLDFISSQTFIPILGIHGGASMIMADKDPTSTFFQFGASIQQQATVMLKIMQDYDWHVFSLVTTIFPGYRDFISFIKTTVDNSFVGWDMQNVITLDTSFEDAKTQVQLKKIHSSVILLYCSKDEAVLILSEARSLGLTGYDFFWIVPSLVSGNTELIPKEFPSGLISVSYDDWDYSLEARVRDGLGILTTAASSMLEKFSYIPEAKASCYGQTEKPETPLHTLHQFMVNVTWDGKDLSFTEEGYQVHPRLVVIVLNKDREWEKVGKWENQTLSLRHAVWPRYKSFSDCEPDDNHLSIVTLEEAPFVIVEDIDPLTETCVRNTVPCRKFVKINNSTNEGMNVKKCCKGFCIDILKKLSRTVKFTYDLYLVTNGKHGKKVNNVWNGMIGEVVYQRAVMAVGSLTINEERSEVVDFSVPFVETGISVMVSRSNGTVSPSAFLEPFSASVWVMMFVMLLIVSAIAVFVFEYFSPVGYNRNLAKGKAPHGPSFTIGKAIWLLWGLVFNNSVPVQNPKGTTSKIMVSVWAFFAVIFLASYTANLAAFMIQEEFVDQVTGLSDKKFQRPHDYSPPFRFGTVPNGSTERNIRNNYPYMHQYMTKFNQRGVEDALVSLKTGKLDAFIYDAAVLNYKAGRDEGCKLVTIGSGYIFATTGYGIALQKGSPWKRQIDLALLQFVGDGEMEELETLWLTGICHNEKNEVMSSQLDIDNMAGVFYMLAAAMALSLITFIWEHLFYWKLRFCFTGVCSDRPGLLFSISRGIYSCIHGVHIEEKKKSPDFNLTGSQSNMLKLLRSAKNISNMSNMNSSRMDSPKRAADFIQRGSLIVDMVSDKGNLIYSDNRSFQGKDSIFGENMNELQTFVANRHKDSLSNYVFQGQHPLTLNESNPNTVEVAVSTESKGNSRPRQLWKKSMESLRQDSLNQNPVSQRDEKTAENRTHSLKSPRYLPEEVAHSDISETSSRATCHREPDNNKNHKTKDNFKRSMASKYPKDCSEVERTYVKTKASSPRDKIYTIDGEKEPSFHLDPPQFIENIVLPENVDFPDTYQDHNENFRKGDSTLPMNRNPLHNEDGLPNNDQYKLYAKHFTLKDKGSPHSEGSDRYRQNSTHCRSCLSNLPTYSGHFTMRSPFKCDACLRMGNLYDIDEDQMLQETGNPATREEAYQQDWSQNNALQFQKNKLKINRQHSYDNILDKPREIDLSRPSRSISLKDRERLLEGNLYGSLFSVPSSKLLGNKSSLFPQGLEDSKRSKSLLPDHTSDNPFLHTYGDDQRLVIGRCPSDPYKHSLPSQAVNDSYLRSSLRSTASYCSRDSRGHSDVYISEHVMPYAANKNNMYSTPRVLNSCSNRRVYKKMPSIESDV", "T2 sequence (Q01097 27-1482, other chains not shown)": "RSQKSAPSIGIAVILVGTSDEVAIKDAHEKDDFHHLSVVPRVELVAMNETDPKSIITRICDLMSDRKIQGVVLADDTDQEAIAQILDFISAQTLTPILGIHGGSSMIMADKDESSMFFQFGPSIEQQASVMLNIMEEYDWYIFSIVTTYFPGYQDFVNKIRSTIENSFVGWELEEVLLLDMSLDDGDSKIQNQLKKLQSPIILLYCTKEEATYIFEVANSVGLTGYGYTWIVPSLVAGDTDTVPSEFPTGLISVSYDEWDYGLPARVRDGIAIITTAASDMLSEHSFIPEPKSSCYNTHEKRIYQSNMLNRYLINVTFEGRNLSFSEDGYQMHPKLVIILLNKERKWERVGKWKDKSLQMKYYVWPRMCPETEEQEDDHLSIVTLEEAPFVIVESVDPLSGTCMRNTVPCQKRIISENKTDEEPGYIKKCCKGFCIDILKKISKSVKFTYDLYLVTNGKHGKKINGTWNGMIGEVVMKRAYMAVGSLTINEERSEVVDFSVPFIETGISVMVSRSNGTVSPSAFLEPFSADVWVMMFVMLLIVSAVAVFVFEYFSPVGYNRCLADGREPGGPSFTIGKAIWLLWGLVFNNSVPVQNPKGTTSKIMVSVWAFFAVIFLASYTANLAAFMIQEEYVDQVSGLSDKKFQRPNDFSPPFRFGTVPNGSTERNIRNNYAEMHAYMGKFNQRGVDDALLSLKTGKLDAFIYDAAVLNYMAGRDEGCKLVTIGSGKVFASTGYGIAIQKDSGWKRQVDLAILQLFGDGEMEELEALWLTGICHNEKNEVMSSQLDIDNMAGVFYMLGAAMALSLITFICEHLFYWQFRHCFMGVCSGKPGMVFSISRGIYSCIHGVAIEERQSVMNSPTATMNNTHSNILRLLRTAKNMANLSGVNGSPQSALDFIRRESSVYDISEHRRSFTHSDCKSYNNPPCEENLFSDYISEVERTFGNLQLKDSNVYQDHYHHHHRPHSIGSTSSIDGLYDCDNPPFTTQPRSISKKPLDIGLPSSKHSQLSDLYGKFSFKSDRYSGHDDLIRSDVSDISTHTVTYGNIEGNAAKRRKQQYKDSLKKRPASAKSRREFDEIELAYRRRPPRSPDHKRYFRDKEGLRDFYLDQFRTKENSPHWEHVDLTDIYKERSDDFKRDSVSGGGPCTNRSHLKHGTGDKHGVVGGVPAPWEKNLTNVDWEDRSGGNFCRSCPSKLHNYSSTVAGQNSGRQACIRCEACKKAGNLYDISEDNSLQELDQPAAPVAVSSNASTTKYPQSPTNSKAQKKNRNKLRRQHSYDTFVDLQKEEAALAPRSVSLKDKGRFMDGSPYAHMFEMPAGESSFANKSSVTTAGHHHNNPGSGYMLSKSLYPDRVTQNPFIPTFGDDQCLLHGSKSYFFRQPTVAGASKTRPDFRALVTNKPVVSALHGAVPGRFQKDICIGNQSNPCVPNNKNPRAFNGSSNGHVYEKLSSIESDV", "test": "Far-western blot of HT-tau oligomer on NMDAR complex", "type": "binding", "details": "anti-HaloTag detection", "source_text": "The membrane protein prepared by the procedure of the above (7-1) was applied to blue native PAGE (NativePAGE™ 3-12% Bis-Tris Protein Gel (Thermo Fisher Scientific, #BN1003BOX); NativePAGE™ Sample Prep Kit (Thermo Fisher Scientific, #BN2008); and NativePAGE™ Running Buffer Kit (Thermo Fisher Scientific, #BN2007) were used) to thereby obtain crude purified NMDAR (complex of a NMDAR4 tetramer and scaffolding proteins such as PSD95, hereinafter simply described as “NMDAR complex”). The NMDAR complex was transferred from the gel after electrophoresis to PVDF membrane (Merck Millipore, #IPVH00010) (transcription buffer: 25 mM of Tris, 192 mM of glycine, 0.1% SDS, 10% Methanol, pH 8.0). […] Subsequently, the membrane was washed, and the tau oligomer adsorbed onto the PVDF membrane was detected by an anti-HaloTag antibody (Promega Corporation, #G928A) (1:1500 dilution) and an HRP-labelled secondary antibody (Jackson Immuno Research, #111-035-144). Additionally, in a replication experiment carried out in parallel, the NMDAR complex was detected by the same procedure without the exposing step to the tau oligomer sample and using an anti-NR1 antibody (Merck Millipore, #MAB363) (1:2000 dilution), instead of the anti-HaloTag antibody."}, "[5]": {"test_system": "NMDAR", "test": "Dot blot of gel-filtered tau oligomer fractions on NMDAR-containing membrane protein", "type": "binding, mouse", "details": "fractions 7 and 8 compared with fractions 6, 9 and 10", "description": "The membrane protein solution prepared by the procedure of the above (7-1) was diluted 16-fold with the above wash buffer and was spotted (1.5 μl/spot) on a nitrocellulose membrane. Then, the membrane was thoroughly dried to thereby obtain a nitrocellulose membrane on which the NMDAR-containing membrane protein was immobilized. On the other hand, a reaction solution before ultracentrifugation to be obtained in the process of preparing the HT-tau oligomer sample of the above (1-4) was fractionated using a gel filtration column (Superdex 200 10/300 GL column, GE Healthcare) (flow rate 0.5 ml/min, fractionated by 1 ml) to thereby obtain tau oligomer fractions in various sizes. Each of the obtained tau oligomer fractions was exposed to the nitrocellulose membrane on which the NMDAR-containing membrane protein was immobilized, to thereby detect the tau oligomers adsorbed onto the nitrocellulose membrane in the same manner as the detection procedure of tau oligomer in the above (7-2)."}, "[6]": {"test_system": "NMDA receptor", "test": "NMDAR-based sandwich ELISA", "type": "binding, mouse"}}, "data": [{"compound": "NC(CCCP(=O)(O)O)C(=O)O", "note": "(stereo not shown) [APS, 2-amino-5-phosphonopentanoic acid, reference compound]", "values": [{"measurement": "increase of the intracellular calcium concentration induced by the tau oligomer, in presence of antagonist", "setting": "[1]", "result": "lost"}]}, {"compound": "N[C@@H](CCC(=O)O)C(=O)O", "note": "[glutamate, reference compound]", "values": [{"measurement": "binding of the tau oligomer at low concentrations in the presence of NMDAR ligand", "setting": "[2]", "result": "reduced"}]}, {"compound": "NCC(=O)O", "note": "[glycine, reference compound]", "values": [{"measurement": "binding of the tau oligomer at low concentrations in the presence of NMDAR ligand", "setting": "[2]", "result": "reduced"}]}, {"compound": "HT-tau oligomer: tau oligomer prepared from tau monomer and HaloTag-fused tau monomer mixed in a ratio of 4:1", "values": [{"measurement": "adhesion to the cell surface", "setting": "[3]", "result": "patchy pattern of fluorescence was observed"}, {"measurement": "interaction with NMDAR complex (around 800 kDa and 1100 kDa)", "setting": "[4]", "result": "interacted with both of them"}]}, {"compound": "LMW TauO: comparatively low-molecular-weight tau oligomers contained in gel filtration fractions 7 and 8", "values": [{"measurement": "binding activity to NMDAR", "setting": "[5]", "result": "strong binding activity"}]}, {"compound": "conantokin-G: a peptide blocking a ligand-binding site of the NMDA receptor (GEEELQENQELIREKSN) [reference compound]", "values": [{"measurement": "effect on binding of the tau oligomer to the NMDA receptor", "setting": "[6]", "result": "inhibited"}]}]}
